Measured values published in patent US10159671B2, “Compositions of multiple aripiprazole prodrugs” (ALKERMES PHARMA IRELAND LIMITED, priority 2016, dated 2018).

Tests used:
Solubility in water = format: physicochemical
Description: The present invention combines particle populations of at least two distinct aripiprazole prodrugs. In a preferred embodiment the composition comprises a particle population of aripiprazole lauroxil and aripiprazole cavoxil particles. The physical and chemical properties of the aripiprazole prodrugs within the scope of the present invention can vary considerably. For instance, aripiprazole cavoxil was determined to have a solubility in water of less than about 1 μg/ml, whereas aripiprazole lauroxil was determined to have a solubility of less than about 4 ng/mL.

[1] = Solubility in a solution comprising 1.5% (w/w) polysorbate 20; format: physicochemical; conditions: aqueous solution with 1.5% (w/w) polysorbate 20, aqueous with cosolvent or surfactant or cyclodextrin; 1.5% (w/w) polysorbate 20 at 40° C., pH 7
Source text: These represent significant differences in the water solubility of the aforementioned prodrugs.

SMILES | solubility (Solubility in water) [µg/mL] | solubility [1] [µg/mL]
CCCCCCCCCCCC(=O)OCN1C(=O)CCc2ccc(OCCCCN3CCN(c4cccc(Cl)c4Cl)CC3)cc21 [aripiprazole lauroxil, Dodecanoic acid, [7-[4-[4-(2,3-dichlorophenyl)-1-piperazinyl]butoxy]-3,4-dihydro-2-oxo-1(2H)-quinolinyl]methyl ester] | < 0.004 | < 2
CCCCCC(=O)OCN1C(=O)CCc2ccc(OCCCCN3CCN(c4cccc(Cl)c4Cl)CC3)cc21 [aripiprazole cavoxil, (7-(4-(4-(2,3-Dichlorophenyl)piperazin-1-yl)butoxy)-2-oxo-3,4-dihydroquinolin-1(2H)yl)methyl hexanoate] | < 1 | < 50
